Data: PubChem BioAssay AID2060487 (Molecular Pharmacology Branch, DTP, NCI, 2025)

Tested on: 997537-175-T-J1-PDC complex spheroid viability
Experiment: Anticancer human tumor 997537-175-T-J1-PDC patient-derived colon adenocarcinoma cell line growth inhibition [GQUAD]
Details: for IC50: curve of first compound; for viability, T/C: stronger effect = lower value
Procedure, shortened: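 Tumor cells were grown as complex spheroids with HUVEC endothelial cells and mesenchymal stem cells as stroma. G-quadruplex stabilizers were combined with targeted agents over half-log dilutions from near the clinical Cmax, or from 10 microM.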

[1] = second compound 0.0316 µM, first compound 0.0316 µM
[2] = second compound 0.0316 µM, first compound 0.1 µM
[3] = second compound 0.0316 µM, first compound 0.316 µM
[4] = second compound 0.0316 µM, first compound 1 µM
[5] = second compound 0.0316 µM, first compound 3.16 µM
[6] = second compound 0.0316 µM, first compound 10 µM
[7] = second compound 0.1 µM, first compound 0.0316 µM
[8] = second compound 0.1 µM, first compound 0.1 µM
[9] = second compound 0.1 µM, first compound 0.316 µM
[10] = second compound 0.1 µM, first compound 1 µM
[11] = second compound 0.1 µM, first compound 3.16 µM
[12] = second compound 0.1 µM, first compound 10 µM
[13] = second compound 0.316 µM, first compound 0.0316 µM
[14] = second compound 0.316 µM, first compound 0.1 µM
[15] = second compound 0.316 µM, first compound 0.316 µM
[16] = second compound 0.316 µM, first compound 1 µM
[17] = second compound 0.316 µM, first compound 3.16 µM
[18] = second compound 0.316 µM, first compound 10 µM
[19] = second compound 1 µM, first compound 0.0316 µM
[20] = second compound 1 µM, first compound 0.1 µM
[21] = second compound 1 µM, first compound 0.316 µM
[22] = second compound 1 µM, first compound 1 µM
[23] = second compound 1 µM, first compound 3.16 µM
[24] = second compound 1 µM, first compound 10 µM
[25] = second compound 3.16 µM, first compound 0.0316 µM
[26] = second compound 3.16 µM, first compound 0.1 µM
[27] = second compound 3.16 µM, first compound 0.316 µM
[28] = second compound 3.16 µM, first compound 1 µM
[29] = second compound 3.16 µM, first compound 3.16 µM
[30] = second compound 3.16 µM, first compound 10 µM
[31] = second compound 10 µM, first compound 0.0316 µM
[32] = second compound 10 µM, first compound 0.1 µM
[33] = second compound 10 µM, first compound 0.316 µM
[34] = second compound 10 µM, first compound 1 µM
[35] = second compound 10 µM, first compound 3.16 µM
[36] = second compound 10 µM, first compound 10 µM
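Also: spheroids exposed to the agents for 7 days.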
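For viability, T/C in this document: 100% = DMSO vehicle control viability.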

Compound: CC(C)(O)C1CCC(Nc2ccc3ncc(-c4cccc(C(F)(F)F)c4)n3n2)CC1 (stereo unspecified) + CN(C)c1ccc(Nc2c3ccc(NC(=O)CCN4CCCC4)cc3nc3cc(NC(=O)CCN4CCCC4)ccc23)cc1
- IC50 (second compound 0.0316 µM): 2.03 µM
- IC50 (second compound 0.1 µM): 1.82 µM
- IC50 (second compound 0.316 µM): 1.85 µM
- IC50 (second compound 1 µM): 2.23 µM
- IC50 (second compound 3.16 µM): 1.45 µM
- IC50 (second compound 10 µM): 2.02 µM
- viability, T/C [1]: 99.5%
- viability, T/C [2]: 108%
- viability, T/C [3]: 88%
- viability, T/C [4]: 65.8%
- viability, T/C [5]: 41.1%
- viability, T/C [6]: 26.1%
- viability, T/C [7]: 83.8%
- viability, T/C [8]: 89.8%
- viability, T/C [9]: 78.2%
- viability, T/C [10]: 58.9%
- viability, T/C [11]: 38.2%
- viability, T/C [12]: 45.8%
- viability, T/C [13]: 85.2%
- viability, T/C [14]: 78.5%
- viability, T/C [15]: 78.2%
- viability, T/C [16]: 75.3%
- viability, T/C [17]: 27.9%
- viability, T/C [18]: 20.4%
- viability, T/C [19]: 61.4%
- viability, T/C [20]: 91.5%
- viability, T/C [21]: 79.2%
- viability, T/C [22]: 81%
- viability, T/C [23]: 30.4%
- viability, T/C [24]: 44.9%
- viability, T/C [25]: 64.5%
- viability, T/C [26]: 85.5%
- viability, T/C [27]: 79.4%
- viability, T/C [28]: 54.5%
- viability, T/C [29]: 44%
- viability, T/C [30]: 36.7%
- viability, T/C [31]: 87.8%
- viability, T/C [32]: 96.4%
- viability, T/C [33]: 95.9%
- viability, T/C [34]: 70.5%
- viability, T/C [35]: 37.2%
- viability, T/C [36]: 22.6%

Compound: COc1ncnc(C2CC2)c1-c1ncc2cnn(Cc3ccc(-c4nc(C(F)(F)F)cn4C(C)C)cc3)c2n1 + CN(C)c1ccc(Nc2c3ccc(NC(=O)CCN4CCCC4)cc3nc3cc(NC(=O)CCN4CCCC4)ccc23)cc1
- IC50 (second compound 0.0316 µM): > 10 µM
- IC50 (second compound 0.1 µM): > 10 µM
- IC50 (second compound 0.316 µM): > 10 µM
- IC50 (second compound 1 µM): > 10 µM
- IC50 (second compound 3.16 µM): > 10 µM
- IC50 (second compound 10 µM): > 10 µM
- viability, T/C [1]: 99%
- viability, T/C [2]: 88.7%
- viability, T/C [3]: 79.4%
- viability, T/C [4]: 77.8%
- viability, T/C [5]: 77.8%
- viability, T/C [6]: 97.8%
- viability, T/C [7]: 91.4%
- viability, T/C [8]: 80.4%
- viability, T/C [9]: 82.2%
- viability, T/C [10]: 62.4%
- viability, T/C [11]: 81.4%
- viability, T/C [12]: 76.7%
- viability, T/C [13]: 73%
- viability, T/C [14]: 85.5%
- viability, T/C [15]: 86.5%
- viability, T/C [16]: 81.1%
- viability, T/C [17]: 87.5%
- viability, T/C [18]: 82.1%
- viability, T/C [19]: 69.2%
- viability, T/C [20]: 88.2%
- viability, T/C [21]: 81.5%
- viability, T/C [22]: 79%
- viability, T/C [23]: 85.7%
- viability, T/C [24]: 82.1%
- viability, T/C [25]: 74.5%
- viability, T/C [26]: 87.6%
- viability, T/C [27]: 86.6%
- viability, T/C [28]: 84.3%
- viability, T/C [29]: 86.4%
- viability, T/C [30]: 91.8%
- viability, T/C [31]: 75.5%
- viability, T/C [32]: 81.7%
- viability, T/C [33]: 86.8%
- viability, T/C [34]: 77.2%
- viability, T/C [35]: 89%
- viability, T/C [36]: 84.7%

Compound: Cc1[nH]c2ccccc2c1CCNCc1ccc(/C=C/C(=O)NO)cc1 + CN(C)c1ccc(Nc2c3ccc(NC(=O)CCN4CCCC4)cc3nc3cc(NC(=O)CCN4CCCC4)ccc23)cc1
- IC50 (second compound 0.0316 µM): 0.301 µM
- IC50 (second compound 0.1 µM): 0.253 µM
- IC50 (second compound 0.316 µM): 0.252 µM
- IC50 (second compound 1 µM): 0.199 µM
- IC50 (second compound 3.16 µM): > 0.316 µM
- IC50 (second compound 10 µM): 0.237 µM
- viability, T/C (second compound 0.0316 µM, first compound 0.000999 µM): 103%
- viability, T/C (second compound 0.0316 µM, first compound 0.00316 µM): 74.8%
- viability, T/C (second compound 0.0316 µM, first compound 0.00999 µM): 85%
- viability, T/C [1]: 102%
- viability, T/C (second compound 0.0316 µM, first compound 0.0999 µM): 77.2%
- viability, T/C [3]: 48.8%
- viability, T/C (second compound 0.1 µM, first compound 0.000999 µM): 97.8%
- viability, T/C (second compound 0.1 µM, first compound 0.00316 µM): 86%
- viability, T/C (second compound 0.1 µM, first compound 0.00999 µM): 79.2%
- viability, T/C [7]: 94%
- viability, T/C (second compound 0.1 µM, first compound 0.0999 µM): 78.8%
- viability, T/C [9]: 42.4%
- viability, T/C (second compound 0.316 µM, first compound 0.000999 µM): 91.5%
- viability, T/C (second compound 0.316 µM, first compound 0.00316 µM): 81.8%
- viability, T/C (second compound 0.316 µM, first compound 0.00999 µM): 88%
- viability, T/C [13]: 80.9%
- viability, T/C (second compound 0.316 µM, first compound 0.0999 µM): 93.3%
- viability, T/C [15]: 41%
- viability, T/C (second compound 1 µM, first compound 0.000999 µM): 88.5%
- viability, T/C (second compound 1 µM, first compound 0.00316 µM): 77.1%
- viability, T/C (second compound 1 µM, first compound 0.00999 µM): 87.5%
- viability, T/C [19]: 80.8%
- viability, T/C (second compound 1 µM, first compound 0.0999 µM): 96.1%
- viability, T/C [21]: 26%
- viability, T/C (second compound 3.16 µM, first compound 0.000999 µM): 89.5%
- viability, T/C (second compound 3.16 µM, first compound 0.00316 µM): 74.9%
- viability, T/C (second compound 3.16 µM, first compound 0.00999 µM): 87.6%
- viability, T/C [25]: 68%
- viability, T/C (second compound 3.16 µM, first compound 0.0999 µM): 91.6%
- viability, T/C [27]: 55%
- viability, T/C (second compound 10 µM, first compound 0.000999 µM): 82.3%
- viability, T/C (second compound 10 µM, first compound 0.00316 µM): 56.7%
- viability, T/C (second compound 10 µM, first compound 0.00999 µM): 96.1%
- viability, T/C [31]: 81.1%
- viability, T/C (second compound 10 µM, first compound 0.0999 µM): 98.8%
- viability, T/C [33]: 39%
